Among the data in PubChem BioAssay (NCI) are TGI values, retold here.

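Exposure lasted 48 hours, with cells grown in 96-well plates and compounds tested at five concentrations. TGI: concentration producing complete growth inhibition.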 Bounds are passed on as bounds.

Test systems include NCI/ADR-RES ovarian; SNB-75 CNS; SW-620 colon; K-562 leukemia; CAKI-1 renal; OVCAR-5 ovarian; NCI-H522 lung; COLO 205 colon; SF-268 CNS; TK-10 renal.
Common to all, as to experiment: DTP human tumour cell line panel, 48 h

Regarding `COC1(C)CCC(OS(C)(=O)=O)CO1` (stereo not given), the TGI with NCI/ADR-RES ovarian, in the assay with SNB-75 CNS, in the assay on SW-620 colon, in the assay on K-562 leukemia, in the assay with CAKI-1 renal and in the assay with OVCAR-5 ovarian was more than 100 µM each time. The TGI in the assay with NCI-H522 lung, in the assay with COLO 205 colon, in the assay with SF-268 CNS and with TK-10 renal was more than 100 µM each time.

As to `CCOC(=O)c1c(SC(=O)c2ccc(Cl)cc2)n(-c2ccccc2)c(=S)n(-c2ccccc2)c1=O`, the TGI with NCI/ADR-RES ovarian, with SNB-75 CNS, with SW-620 colon, with K-562 leukemia, with CAKI-1 renal and in the assay with OVCAR-5 ovarian was more than 100 µM throughout. The TGI with NCI-H522 lung, in the assay with COLO 205 colon, in the assay on SF-268 CNS and in the assay on TK-10 renal was more than 100 µM throughout.

Consider `Cc1cc2ccccc2n2c1nc1ccc(O)cc12`, for which the TGI in the assay on NCI/ADR-RES ovarian, in the assay on SNB-75 CNS, in the assay on SW-620 colon, in the assay on K-562 leukemia, with CAKI-1 renal and in the assay on OVCAR-5 ovarian was more than 10 µM throughout. The concentration for total growth inhibition (TGI) with NCI-H522 lung, with COLO 205 colon, in the assay with SF-268 CNS and in the assay on TK-10 renal was more than 10 µM throughout.

`C[C@]12CC[C@H]3[C@@H](CC=C4C[C@@H](O)CC[C@@]43C)[C@@H]1C/C(=C\c1ccc([N+](=O)[O-])cc1)[C@@H]2O`: the TGI in the assay on NCI/ADR-RES ovarian was 48.4 µM; with SNB-75 CNS it was 32.1 µM; in the assay with SW-620 colon, more than 100 µM; in the assay with K-562 leukemia, more than 100 µM; with CAKI-1 renal, 36.8 µM; with OVCAR-5 ovarian, 78.4 µM. In addition, the concentration for total growth inhibition (TGI) in the assay on NCI-H522 lung was 32.7 µM; in the assay with COLO 205 colon it was more than 100 µM; in the assay on SF-268 CNS it was more than 100 µM; with TK-10 renal it was 55.2 µM.
